Test results from US10669283B2, “Compound and pharmacologically acceptable salt thereof” (MEIJI SEIKA PHARMA CO., LTD., priority 2016, dated 2020).
Read-outs that look alike come from different tables or passages of the source.

Tests used:
[1] = tested on: PDE4; experiment: PDE4 inhibition, scintillation proximity assay (SPA); type: biochemical
Summary of the method: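 Scintillation proximity read-out: [2,8-3H]-cAMP hydrolysis by PDE4 ran 120 min at room temperature in Tris-HCl pH 7.4 buffer with 8.3 mM MgCl2, 1.7 mM EGTA and 3 mg/mL BSA. Bead-bound product (YSi-SPA with ZnSO4, 15 min) counted; blank lacks enzyme, control has DMSO only.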

[2] = Hepatic metabolic stability (rat liver microsome method); type: in vitro ADME; settings: rat liver microsomes 0.5 mg/mL, test substance 1 μM, NADPH 1 mM, 37° C., 30 minutes
Description: Metabolic stability in rat liver microsomes was evaluated by the following method. In 100 mM of potassium phosphate buffer solution (pH 7.4), liver microsomes (concentration at reaction: 0.5 mg/mL) and the test substance (concentration at reaction: 1 μM) were preincubated at 37° C. Five minutes later, 100 mM of potassium phosphate buffer (pH 7.4) solution of NADPH (concentration at reaction: 1 mM) was mixed thereto to start the reaction. After a predetermined time passed, acetonitrile was mixed to the reaction mixture to stop the reaction. Here, the reaction time was 0 and 30 minutes, and drug concentration measurement was performed for each time period using LC-MS. The % remaining value of the test compound was calculated from the value for 0 minutes and the value for 30 minutes, using the calculation formula below: % Remaining=(Value for 30 Minutes/Value for 0 Minutes)×100
The results of measuring the rat liver microsome metabolic Stability (% remaining for 30-minute reaction) for the test compound by the above method were evaluated in accordance with the following evaluated basis; A: a % remaining rate of 75% or more, B: 60% or more and less than 75%, C: 45% or more and less than 60%, and D: less than 45%.

[3] = scintillation proximity assay, class symbols, read-out: PDE4 Inhibitory Activity
[4] = scintillation proximity assay (SPA), evaluated as classes A, B, C, read-out: PDE4 Inhibitory Activity (concentration for the inhibition rate of 50%)

SMILES: Cn1ccc(-c2ccc(OC(F)(F)C(C)(C)O)c3nc(N4CC5CC(C4)N5)oc23)n1 [Example 394, 1-((2-(3,6-diazabicyclo[3.1.1]heptan-3-yl)-7-(1-methyl-1H-pyrazol-3-yl)benzo[d]oxazol-4-yl)oxy)-1,1-difluoro-2-methylpropan-2-ol]
- IC50 [1, 3]: 100 to 1000 nM
- Residual ratio (% remaining for 30-minute reaction) [2]: A (a % remaining rate of 75% or more)

SMILES: CC(O)C(F)(F)Oc1ccc(-c2nccs2)c2oc(N3CC4CC(C3)N4O)nc12 (single isomer, unassigned) [Example 372, 3-(4-(1,1-difluoro-2-hydroxypropoxy)-7-(thiazol-2-yl)benzo [d]oxazol-2-yl)-3,6-diazabicyclo[3.1.1] heptan-6-ol]
- IC50 [1, 3]: < 100 nM
- Residual ratio (% remaining for 30-minute reaction) [2]: B (60% or more and less than 75%)

SMILES: OCC(O)C(F)(F)Oc1ccc(-c2nccs2)c2oc(N3CC4CC(C3)N4)nc12 (stereo not drawn) [Example 370, 3-((2-(3,6-diazabicyclo[3.1.1]heptan-3-yl)-7-(thiazol-2-yl)benzo[d]oxazol-4-yl)oxy)-3,3-difluoropropane-1,2-diol]
- IC50 [1, 3]: < 100 nM
- Residual ratio (% remaining for 30-minute reaction) [2]: A (a % remaining rate of 75% or more)

SMILES: NC(=O)C(F)(F)Oc1ccc(-c2nccs2)c2oc(N3CC4CC(C3)N4)nc12 [Example 410, 2-((2-(3,6-diazabicyclo [3.1.1]heptan-3-yl)-7-(thiazol-2-yl)benzo[d]oxazol-4-yl)oxy)-2,2-difluoro-acetamide]
- IC50 [1, 3]: < 100 nM
- Residual ratio (% remaining for 30-minute reaction) [2]: A (a % remaining rate of 75% or more)

SMILES: CC(C)(O)C(F)(F)Oc1ccc(-c2ncns2)c2oc(N3CC4CCC(C3)N4)nc12 [Example 327, 1-((2-(3,8-Diazabicyclo[3.2.1]octan-3-yl)-7-(1,2,4-thiadiazol-5-yl)benzo[d]oxazol-4-yl)oxy)-1,1-difluoro-2-methylpropan-2-ol]
- IC50 [1, 3]: < 100 nM
- Residual ratio (% remaining for 30-minute reaction) [2]: B (60% or more and less than 75%)

SMILES: C[C@@H](O)COc1ccc(-c2nccs2)c2oc(N3CC4CC(C3)N4)nc12 [Example 259, (2R)-1-((2-(3,6-diazabicyclo[3.1.1]heptan-3-yl)-7-(thiazol-2-yl)benzo[d]oxazol-4-yl)oxy)propan-2-ol]
- IC50 [1, 4]: < 100 nM
- Residual ratio (% remaining for 30-minute reaction) [2]: A (a % remaining rate of 75% or more)

SMILES: CC(O)(CO)C(F)(F)Oc1ccc(-c2nccs2)c2oc(N3CC4CC(C3)N4)nc12 (single isomer, unassigned) [Example 364, 3-((2-(3,6-diazabicyclo [3.1.1]heptan-3-yl)-7-(thiazol-2-yl)benzo[d]oxazol-4-yl)oxy)-3,3-difluoro-2-methylpropane-1,2-diol]
- IC50 [1, 3]: < 100 nM
- Residual ratio (% remaining for 30-minute reaction) [2]: A (a % remaining rate of 75% or more)

SMILES: CC(C)(O)C(F)(F)Oc1ccc(-c2nccs2)c2oc(N3CC4CCC(C3)N4)nc12 [Example 405, 1-((2-(3,8-diazabicyclo [3.2.1]octan-3-yl)-7-(thiazol-2-yl)benzo[d]oxazol-4-yl)oxy)-1,1-difluoro-2-methylpropan-2-ol]
- IC50 [1, 3]: < 100 nM
- Residual ratio (% remaining for 30-minute reaction) [2]: B (60% or more and less than 75%)

SMILES: COCC(F)(F)Oc1ccc(-c2nccs2)c2oc(N3CC4CC(C3)N4)nc12 [Example 392, 2-(3,6-diazabicyclo[3.1.1]heptan-3-yl)-4-(1,1-difluoro-2-methoxyethoxy)-7-(thiazol-2-yl) benzo[d]oxazole]
- IC50 [1, 3]: < 100 nM
- Residual ratio (% remaining for 30-minute reaction) [2]: B (60% or more and less than 75%)

SMILES: CCC(O)C(F)(F)Oc1ccc(-c2nccs2)c2oc(N3CC4CC(C3)N4)nc12 (stereo not drawn) [Example 395, 1-((2-(3,6-diazabicyclo[3.1.1]heptan-3-yl)-7-(thiazol-2-yl)benzo[d]oxazol-4-yl)oxy)-1,1-difluorobutan-2-ol]
- IC50 [1, 3]: < 100 nM
- Residual ratio (% remaining for 30-minute reaction) [2]: B (60% or more and less than 75%)

SMILES: c1csc(-c2ccc(OC3CCOCC3)c3nc(N4CC5CCC(C4)N5)oc23)n1 [Example 254, 2-(3,8-Diazabicyclo[3.2.1]octan-3-yl)-4-((tetrahydro-2H-pyran-4-yl)oxy)-7-(thiazol-2-yl)benzo[d]oxazole]
- IC50 [1, 4]: < 100 nM
- Residual ratio (% remaining for 30-minute reaction) [2]: A (a % remaining rate of 75% or more)

SMILES: CC(C)(O)C(F)(F)Oc1c(Br)cc(-c2nccs2)c2oc(N3CC4CC(C3)N4)nc12 [Example 399, 1-((2-(3,6-diazabicyclo [3.1.1]heptan-3-yl)-5-bromo-7-(thiazol-2-yl)benzo[d]oxazol-4-yl)oxy)-1,1-difluoro-2-methylpropan-2-ol]
- IC50 [1, 3]: < 100 nM
- Residual ratio (% remaining for 30-minute reaction) [2]: B (60% or more and less than 75%)

SMILES: C[S+]([O-])c1ccc(-c2nccs2)c2oc(N3CC4CC(C3)N4)nc12 (stereo not drawn) [Example 346, 2-(3,6-diazabicyclo[3.1.1]heptan-3-yl)-4-(methylsulfinyl)-7-(thiazol-2-yl)benzo [d]oxazole]
- IC50 [1, 3]: < 100 nM
- Residual ratio (% remaining for 30-minute reaction) [2]: A (a % remaining rate of 75% or more)

SMILES: CC(C)(O)C(F)(F)Oc1ccc(-n2nccn2)c2oc(N3CC4CCC(C3)N4)nc12 [Example 322, 1-((2-(3,8-Diazabicyclo[3.2.1]octan-3-yl)-7-(2H-1,2,3-triazol-2-yl)benzo[d]oxazol-4-yl)oxy)-1,1-difluoro-2-methylpropan-2-ol]
- IC50 [1, 4]: < 100 nM
- Residual ratio (% remaining for 30-minute reaction) [2]: A (a % remaining rate of 75% or more)

SMILES: FC(F)(F)Oc1ccc(-c2nccs2)c2oc(N3CC4CC(C3)N4)nc12 [Example 29, 2-(3,6-Diazabicyclo[3.1.1]heptan-3-yl)-7-(thiazol-2-yl)-4-(trifluoromethoxy)benzo[d]oxazole]
- IC50 [1, 4]: < 100 nM
- Residual ratio (% remaining for 30-minute reaction) [2]: B (60% or more and less than 75%)

SMILES: CC(O)C(F)(F)Oc1ccc(-c2nccs2)c2oc(N3CC4CC(C3)N4O)nc12 (single isomer, unassigned) [Example 373, 3-(4-(1,1-difluoro-2-hydroxypropoxy)-7-(thiazol-2-yl)benzo [d]oxazol-2-yl)-3,6-diazabicyclo[3.1.1] heptan-6-ol]
- IC50 [1, 3]: < 100 nM
- Residual ratio (% remaining for 30-minute reaction) [2]: B (60% or more and less than 75%)

SMILES: Cc1csc(-c2ccc(OC(F)(F)C(C)(C)O)c3nc(N4CC5CCC(C4)N5)oc23)n1 [Example 318, 1-((2-(3,8-Diazabicyclo[3.2.1]octan-3-yl)-7-(4-methylthiazol-2-yl)benzo[d]oxazol-4-yl)oxy)-1,1-difluoro-2-methylpropan-2-ol]
- IC50 [1, 4]: < 100 nM
- Residual ratio (% remaining for 30-minute reaction) [2]: B (60% or more and less than 75%)

SMILES: CC(C)(O)C(F)(F)Oc1c(Cl)cc(-c2nccs2)c2oc(N3CC4CC(C3)N4)nc12 [Example 400, 1-((2-(3,6-diazabicyclo [3.1.1]heptan-3-yl)-5-chloro-7-(thiazol-2-yl)benzo[d]oxazol-4-yl)oxy)-1,1-difluoro-2-methylpropan-2-ol]
- IC50 [1, 3]: < 100 nM
- Residual ratio (% remaining for 30-minute reaction) [2]: B (60% or more and less than 75%)

SMILES: c1cc(-c2nccs2)c2oc(N3CC4CC(C3)N4)nc2c1 [Example 382, 2-(3,6-diaza-bicyclo[3.1.1]heptan-3-yl)-7-(thiazol-2-yl) benzo[d]oxazole]
- IC50 [1, 3]: < 100 nM
- Residual ratio (% remaining for 30-minute reaction) [2]: B (60% or more and less than 75%)

SMILES: c1csc(-c2ccc(OC3COC3)c3nc(N4CC5CC(C4)N5)oc23)n1 [Example 325, 2-(3,6-Diazabicyclo[3.1.1]heptan-3-yl)-4-(oxetan-3-yloxy)-7-(thiazol-2-yl)benzo[d]oxazole]
- IC50 [1, 3]: < 100 nM
- Residual ratio (% remaining for 30-minute reaction) [2]: A (a % remaining rate of 75% or more)

SMILES: FC(F)(F)C(OCc1nnn[nH]1)c1ccc(-c2nccs2)c2oc(N3CC4CCC(C3)N4)nc12 (stereo not drawn) [Example 230, 4-(1-((1H-tetrazol-5-yl)methoxy)-2,2,2-trifluoroethyl)-2-(3,8-diazabicyclo[3.2.1]octan-3-yl)-7-(thiazol-2-yl)benzo[d]oxazole]
- IC50 [1, 4]: < 100 nM
- Residual ratio (% remaining for 30-minute reaction) [2]: A (a % remaining rate of 75% or more)

SMILES: OC1CC(Oc2ccc(-c3nccs3)c3oc(N4CC5CC(C4)N5)nc23)C1 (stereo not drawn) [Example 285, 3-((2-(3,6-Diazabicyclo[3.1.1]heptan-3-yl)-7-(thiazol-2-yl)benzo[d]oxazol-4-yl)oxy)cyclobutan-1-ol]
- IC50 [1, 4]: < 100 nM
- Residual ratio (% remaining for 30-minute reaction) [2]: A (a % remaining rate of 75% or more)

SMILES: FC(F)(F)Oc1c(Cl)cc(-c2cscn2)c2oc(N3CC4CCC(C3)N4)nc12 [Example 8, 2-(3,8-Diazabicyclo[3.2.1]octan-3-yl)-5-chloro-7-(thiazol-4-yl)-4-(trifluoromethoxy)benzo[d]oxazole]
- IC50 [1, 4]: < 100 nM
- Residual ratio (% remaining for 30-minute reaction) [2]: A (a % remaining rate of 75% or more)

SMILES: CCNC(=O)c1ccc(-c2nccs2)c2oc(N3CC4CC(C3)N4)nc12 [Example 358, 2-(3,6-diazabicyclo [3.1.1]heptan-3-yl)-N-ethyl-7-(thiazol-2-yl) benzo[d]oxazole-4-carboxamide]
- IC50 [1, 3]: < 100 nM
- Residual ratio (% remaining for 30-minute reaction) [2]: A (a % remaining rate of 75% or more)
